Measurements as given in ChEMBL document CHEMBL3425451, “Novel synthetic bisbenzimidazole that targets angiogenesis in Ehrlich ascites carcinoma bearing mice” (Bioorg Med Chem Lett, 2015).
Active and inactive are the calls of the source. No cut-off for these calls is given here.

Key:
HeLa [1] = experiment: Cytotoxicity against human HeLa cells by MTT assay
[2] = Cytotoxicity against human HCT116 cells by MTT assay; assay type: functional, cell-based; conditions: HCT-116
A549 = experiment: Cytotoxicity against human A549 cells by MTT assay; assay type: functional, cell-based
Vero = experiment: Cytotoxicity against African green monkey Vero cells by MTT assay; assay type: cell-based; conditions: Chlorocebus sabaeus
HeLa [3] = experiment: Induction of apoptosis in human HeLa cells assessed as accumulation at subG1 phase at 25 uM by propidium iodide staining based flow cytometry; assay type: functional, cell-based; conditions: TDE = time-dependent effect
EAT [4] = experiment: Antitumor activity against mouse EAT implanted in Swiss albino mouse assessed as reduction in body weight at 10 mg/kg injected into peritoneum and measured on day 11; assay type: functional, organism-based; parameters: dose 10 mg/kg
EAT [5] = experiment: Antitumor activity against mouse EAT implanted in Swiss albino mouse assessed as reduction in ascites fluid volume at 10 mg/kg injected into peritoneum and measured on day 12; assay type: functional, organism-based; parameters: dose 10 mg/kg
EAT [6] = experiment: Antitumor activity against mouse EAT implanted in Swiss albino mouse assessed as reduction in tumor cell viability at 10 mg/kg injected into peritoneum and measured on day 12 by trypan blue dye exclusion assay; assay type: functional, organism-based; parameters: dose 10 mg/kg
EAT [7] = experiment: Inhibition of peritoneal angiogenesis of mouse EAT implanted in Swiss albino mouse at 10 mg/kg injected into peritoneum; assay type: functional, organism-based; parameters: dose 10 mg/kg
EAT [8] = experiment: (§1) Inhibition of peritoneal angiogenesis of mouse EAT implanted in Swiss albino mouse assessed as reduction in micro vessel density at 10 mg/kg injected into peritoneum by hematoxylin and eosin staining method; assay type: functional, organism-based; parameters: dose 10 mg/kg
[9] = as §1, with “density by measuring number of micro vessels per high power field” for “density”, “method (reference value: 54 +/- 6 vessels/high power field)” for “method”; assay type: functional
[10] = Inhibition of VEGF production in mouse EAT implanted in Swiss albino mouse peritoneal cavity at 10 mg/kg injected into peritoneum by ELISA method (reference value: 2412 +/- 10 ng); assay type: functional
EAT [11] = experiment: […] of apoptosis in mouse EAT implanted in Swiss albino mouse assessed as induction of DNA fragmentation at 10 mg/kg injected into peritoneum by ethidium bromide staining based electrophoresis method; assay type: functional, organism-based; parameters: dose 10 mg/kg
EAT [12] = experiment: […] of apoptosis in mouse EAT implanted in Swiss albino mouse assessed as induction of cell shrinkage at 10 mg/kg injected into peritoneum by Giemsa staining based microscopy; assay type: functional, organism-based; parameters: dose 10 mg/kg
EAT [13] = experiment: […] of apoptosis in mouse EAT implanted in Swiss albino mouse assessed as induction of small blebs formation at 10 mg/kg injected into peritoneum by Giemsa staining based microscopy; assay type: functional, organism-based; parameters: dose 10 mg/kg
EAT [14] = experiment: […] of apoptosis in mouse EAT implanted in Swiss albino mouse assessed as induction of apoptotic bodies formation at 10 mg/kg injected into peritoneum by Giemsa staining based microscopy; assay type: functional, organism-based; parameters: dose 10 mg/kg

SMILES: CCCc1nc2c(C)cc(-c3nc4ccccc4n3C)cc2n1S(=O)(=O)c1ccc(C)cc1
- IC50 (HeLa [1]): 20.1 µM
- IC50 [2]: 41.6 µM
- IC50 (A549): > 50 µM
- IC50 (Vero): > 50 µM

SMILES: CCCc1nc2c(C)cc(-c3nc4ccccc4n3C)cc2n1S(=O)(=O)c1ccc(Cl)cc1
- IC50 (HeLa [1]): 21.4 µM
- IC50 [2]: 36.8 µM
- IC50 (A549): > 50 µM
- IC50 (Vero): > 50 µM

SMILES: CCCc1nc2c(C)cc(-c3nc4ccccc4n3C)cc2n1S(=O)(=O)c1ccc(OC)cc1
- IC50 (HeLa [1]): 18.3 µM
- IC50 [2]: 19.1 µM
- IC50 (A549): 34.7 µM
- IC50 (Vero): > 50 µM

SMILES: CCCc1nc2c(C)cc(-c3nc4ccccc4n3C)cc2n1S(=O)(=O)c1ccccc1Cl
- IC50 (HeLa [1]): > 50 µM

SMILES: CCCc1nc2c(C)cc(-c3nc4ccccc4n3C)cc2n1S(=O)(=O)c1ccc(F)cc1
- IC50 (HeLa [1]): 16.7 µM
- IC50 [2]: 19.9 µM
- IC50 (A549): 32.2 µM
- IC50 (Vero): > 50 µM
- Activity (HeLa [3]): tde
- inhibition (EAT [4]): Active
- inhibition (EAT [5]): Active
- inhibition (EAT [6]): Active
- inhibition (EAT [7]): Active
- inhibition (EAT [8]): Active
- Activity [9]: 8
- Activity [10]: 225 ng
- Activity (EAT [11]): Active
- Activity (EAT [12]): Active
- Activity (EAT [13]): Active
- Activity (EAT [14]): Active

SMILES: CCCc1nc2c(C)cc(-c3nc4ccccc4n3C)cc2n1S(=O)(=O)c1ccc(Br)cc1
- IC50 (HeLa [1]): 24.7 µM
- IC50 [2]: 49.3 µM
- IC50 (A549): 35.1 µM
- IC50 (Vero): > 50 µM

SMILES: CCCc1nc2c(C)cc(-c3nc4ccccc4n3C)cc2n1S(=O)(=O)c1ccccc1
- IC50 (HeLa [1]): 23.8 µM
- IC50 [2]: > 50 µM
- IC50 (A549): > 50 µM
- IC50 (Vero): > 50 µM

SMILES: CCCc1nc2c(C)cc(-c3nc4ccccc4n3C)cc2n1S(=O)(=O)c1cc(Cl)ccc1Cl
- IC50 (HeLa [1]): > 50 µM

SMILES: CCCc1nc2c(C)cc(-c3nc4ccccc4n3C)cc2n1S(=O)(=O)c1c(C)cc(C)cc1C
- IC50 (HeLa [1]): 21 µM
- IC50 [2]: 29.9 µM
- IC50 (A549): > 50 µM
- IC50 (Vero): > 50 µM

SMILES: CCCc1nc2c(C)cc(-c3nc4ccccc4n3C)cc2n1S(=O)(=O)c1ccccc1Br
- IC50 (HeLa [1]): > 50 µM
